From patent publication US11168083B2, “Inhibitors of Plasma Kallikrein and uses thereof” (Takeda Pharmaceutical Company Limited, priority 2017, dated 2021) come the findings set out here.

For the assay, the target named is human activated kallikrein enzyme (Homo sapiens (Human), UniProt P03952). In words: Inhibition of human activated kallikrein enzyme, fluorogenic peptide substrate assay (two formats). The following applies: Table 2; column head prints nM, ranges defined in μM; read-out: pKal EC50. The assay is classed as biochemical. The procedure: The example compounds were evaluated for inhibition of the human activated kallikrein enzyme in two formats of an assay employing a fluorogenic peptide substrate. In one assay format, the concentrations of reagents were as follows: 20 mM Tris pH 7.5, 1 mM EDTA, 150 mM sodium chloride, 0.1% PEG-400, 0.1% Triton X-100, 500 pM activated kallikrein enzyme, 300 uM Pro-Phe-Arg-7-amido-4-methylcoumarin substrate. Prior to reaction initiation with substrate, enzyme and inhibitors were preincubated for 30 min at room temperature. After initiation with substrate, reactions were incubated for 10 min at room temperature and fluorescence emission at 460 nm from 380 nm excitation measured with a microplate reader. In another assay format, the concentrations of reagents were as follows: 20 mM Tris pH 7.5, 1 mM EDTA, 150 mM sodium chloride, 0.1% PEG-400, 0.1% Triton X-100, 5 pM activated kallikrein enzyme, 300 uM Pro-Phe-Arg-7-amido-4-methylcoumarin substrate. Prior to reaction initiation with substrate, enzyme and inhibitors were preincubated for 30 min at room temperature. After initiation with substrate, reactions were incubated for 18 hr at room temperature and fluorescence emission at 460 nm from 380 nm excitation measured with a microplate reader.
Sequence of human activated kallikrein enzyme (P03952 391-638): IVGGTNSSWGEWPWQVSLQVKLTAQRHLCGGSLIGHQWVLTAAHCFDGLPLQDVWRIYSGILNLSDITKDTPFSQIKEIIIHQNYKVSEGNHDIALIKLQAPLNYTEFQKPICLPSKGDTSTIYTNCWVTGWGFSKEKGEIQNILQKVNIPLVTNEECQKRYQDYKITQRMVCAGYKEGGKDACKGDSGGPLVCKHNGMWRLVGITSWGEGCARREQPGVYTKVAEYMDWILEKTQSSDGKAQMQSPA
Sequence of human activated kallikrein enzyme (P03952 20-390 partner): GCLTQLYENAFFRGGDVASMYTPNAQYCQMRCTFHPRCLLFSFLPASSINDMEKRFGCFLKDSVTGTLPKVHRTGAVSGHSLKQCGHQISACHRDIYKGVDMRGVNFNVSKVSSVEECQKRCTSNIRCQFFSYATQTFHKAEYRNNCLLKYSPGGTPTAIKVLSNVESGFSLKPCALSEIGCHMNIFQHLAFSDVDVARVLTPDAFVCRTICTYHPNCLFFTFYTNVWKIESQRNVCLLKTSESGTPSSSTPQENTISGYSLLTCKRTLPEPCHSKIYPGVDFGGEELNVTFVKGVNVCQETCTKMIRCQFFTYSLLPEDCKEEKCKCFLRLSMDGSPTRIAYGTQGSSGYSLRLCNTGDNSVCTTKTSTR
By EC50 is commonly meant the concentration needed to bring the measured effect to its halfway point. Turning to `CNC(=O)[C@H](CCCCNC(=N)N)NC(=O)c1csc([C@@H]2C[C@@H](N)CN2C(=O)c2cc3cc(Cl)ccc3s2)n1` [Compound 44, 2-((2S,4R)-4-amino-1-(5-chlorobenzo[b]thiophene-2-carbonyl)pyrrolidin-2-yl)-N—((S)-6-guanidino-1-(methylamino)-1-oxohexan-2-yl)thiazole-4-carboxamide], the EC50 lay in the range of 100 to 1000 nM.

In the case of `CNC(=O)[C@H](CCCCNC(=N)N)NC(=O)c1csc([C@@H]2C[C@@H](N)CN2C(=O)c2nc3cc(Cl)ccc3s2)n1` [Compound 45, 2-((2S,4R)-4-amino-1-(5-chlorobenzo[d]thiazole-2-carbonyl)pyrrolidin-2-yl)-N—((S)-6-guanidino-1-(methylamino)-1-oxohexan-2-yl)thiazole-4-carboxamide], the EC50 is not above 100 nM.

Take `N=C(N)NCCCCCNC(=O)c1csc([C@@H]2C[C@@H](N)CN2C(=O)c2cn3cc(Cl)ccc3n2)n1` [Compound 46, 2-((2S,4R)-4-amino-1-(6-chloroimidazo[1,2-a]pyridine-2-carbonyl)pyrrolidin-2-yl)-N-(5-guanidinopentyl)thiazole-4-carboxamide]: the EC50 is 100 to 1000 nM.

Regarding `N=C(N)c1ccc(CNC(=O)c2csc([C@@H]3C[C@@H](N)CN3C(=O)c3cn4cc(Cl)ccc4n3)n2)cc1` [Compound 47, 2-((2S,4R)-4-amino-1-(6-chloroimidazo[1,2-a]pyridine-2-carbonyl)pyrrolidin-2-yl)-N-(4-carbamimidoylbenzyl)thiazole-4-carboxamide], the EC50 was not above 100 nM.

As for `Cc1cc(N)nc(C)c1CNC(=O)c1csc([C@@H]2C[C@@H](N)CN2C(=O)c2cn3cc(Cl)ccc3n2)n1` [Compound 48, 2-((2S,4R)-4-amino-1-(6-chloroimidazo[1,2-a]pyridine-2-carbonyl)pyrrolidin-2-yl)-N-((6-amino-2,4-dimethylpyridin-3-yl)methyl)thiazole-4-carboxamide], the EC50 lay in the range of 100 to 1000 nM.

On to `Nc1nccc2cc(CNC(=O)c3csc([C@@H]4C[C@@H](N)CN4C(=O)c4cn5cc(Cl)ccc5n4)n3)ccc12` [Compound 49, 2-((2S,4R)-4-amino-1-(6-chloroimidazo[1,2-a]pyridine-2-carbonyl)pyrrolidin-2-yl)-N-((1-aminoisoquinolin-6-yl)methyl)thiazole-4-carboxamide], for which the EC50 is not above 100 nM.

For the compound `NCc1ccc(CNC(=O)c2csc([C@@H]3C[C@@H](N)CN3C(=O)c3cn4cc(Cl)ccc4n3)n2)cc1` [Compound 50, 2-((2S,4R)-4-amino-1-(6-chloroimidazo[1,2-a]pyridine-2-carbonyl)pyrrolidin-2-yl)-N-(4-(aminomethyl)benzyl)thiazole-4-carboxamide], the EC50 lay in the range of 5000 to 9900 nM.

On to `N=C(N)c1ccc(CCNC(=O)c2csc([C@@H]3C[C@@H](N)CN3C(=O)c3cn4cc(Cl)ccc4n3)n2)cc1` [Compound 51, 2-((2S,4R)-4-amino-1-(6-chloroimidazo[1,2-a]pyridine-2-carbonyl)pyrrolidin-2-yl)-N-(4-carbamimidoylphenethyl)thiazole-4-carboxamide], for which the EC50 was not above 100 nM.

As for `Cc1cc(N)nc(C)c1CCNC(=O)c1csc([C@@H]2C[C@@H](N)CN2C(=O)c2cn3cc(Cl)ccc3n2)n1` [Compound 52, 2-((2S,4R)-4-amino-1-(6-chloroimidazo[1,2-a]pyridine-2-carbonyl)pyrrolidin-2-yl)-N-(2-(6-amino-2,4-dimethylpyridin-3-yl)ethyl)thiazole-4-carboxamide], the EC50 was more than 9900 nM.

Consider `NCc1ccc(CCNC(=O)c2csc([C@@H]3C[C@@H](N)CN3C(=O)c3cn4cc(Cl)ccc4n3)n2)cc1` [Compound 54, 2-((2S,4R)-4-amino-1-(6-chloroimidazo[1,2-a]pyridine-2-carbonyl)pyrrolidin-2-yl)-N-(4-(aminomethyl)phenethyl)thiazole-4-carboxamide], for which the EC50 was 1000 to 5000 nM.

Take `N[C@@H]1C[C@@H](c2nc(C(=O)NCc3ncn4ccc(Cl)cc34)cs2)N(C(=O)c2cn3cc(Cl)ccc3n2)C1` [Compound 55, 2-((2S,4R)-4-amino-1-(6-chloroimidazo[1,2-a]pyridine-2-carbonyl)pyrrolidin-2-yl)-N-((7-chloroimidazo[1,5-a]pyridin-1-yl)methyl)thiazole-4-carboxamide]: the EC50 lay in the range of 100 to 1000 nM.

For the compound `N[C@@H]1C[C@@H](c2nc(C(=O)NCc3ccc4cc(Cl)ccc4c3)cs2)N(C(=O)c2cn3cc(Cl)ccc3n2)C1` [Compound 56, 2-((2S,4R)-4-amino-1-(6-chloroimidazo[1,2-a]pyridine-2-carbonyl)pyrrolidin-2-yl)-N-((6-chloronaphthalen-2-yl)methyl)thiazole-4-carboxamide], the EC50 is more than 9900 nM.

On to `CNC(=O)[C@@H](CCCCNC(=N)N)NC(=O)c1csc([C@@H]2C[C@@H](N)CN2C(=O)c2cc3cc(Cl)ccc3s2)n1` [Compound 57, 2-((2S,4R)-4-amino-1-(5-chlorobenzo[b]thiophene-2-carbonyl)pyrrolidin-2-yl)-N—((R)-6-guanidino-1-(methylamino)-1-oxohexan-2-yl)thiazole-4-carboxamide], for which the EC50 was in the range of 1000 to 5000 nM.

`N[C@@H]1C[C@@H](c2nc(C(=O)NCc3n[nH]c4ccc(Cl)cc34)cs2)N(C(=O)c2cn3cc(Cl)ccc3n2)C1` [Compound 58, 2-((2S,4R)-4-amino-1-(6-chloroimidazo[1,2-a]pyridine-2-carbonyl)pyrrolidin-2-yl)-N-((5-chloro-1H-indazol-3-yl)methyl)thiazole-4-carboxamide]: the EC50 lay within 5000 to 9900 nM.

With `N[C@@H]1C[C@@H](c2nc(C(=O)NCc3n[nH]c4cc(Cl)ccc34)cs2)N(C(=O)c2cn3cc(Cl)ccc3n2)C1` [Compound 59, 2-((2S,4R)-4-amino-1-(6-chloroimidazo[1,2-a]pyridine-2-carbonyl)pyrrolidin-2-yl)-N-((6-chloro-1H-indazol-3-yl)methyl)thiazole-4-carboxamide], the EC50 is more than 9900 nM.

Regarding `Cc1cc2c(N)nccc2c(C)c1CNC(=O)c1csc([C@@H]2C[C@@H](N)CN2C(=O)c2cn3cc(Cl)ccc3n2)n1` [Compound 60, 2-((2S,4R)-4-amino-1-(6-chloroimidazo[1,2-a]pyridine-2-carbonyl)pyrrolidin-2-yl)-N-((1-amino-5,7-dimethylisoquinolin-6-yl)methyl)thiazole-4-carboxamide], the EC50 is not above 100 nM.

For `CNC(=O)[C@H](CCCCNC(=N)N)NC(=O)c1csc([C@@H]2C[C@@H](N)CN2C(=O)c2cc3cc(Cl)c(Cl)cc3s2)n1` [Compound 61, 2-((2S,4R)-4-amino-1-(5,6-dichlorobenzo[b]thiophene-2-carbonyl)pyrrolidin-2-yl)-N—((S)-6-guanidino-1-(methylamino)-1-oxohexan-2-yl)thiazole-4-carboxamide], the concentration giving a half-maximal response (EC50) lay in the range of 100 to 1000 nM.

On to `CNC(=O)[C@H](CCCCNC(=N)N)NC(=O)c1csc([C@@H]2C[C@@H](N)CN2C(=O)c2cc3ccc(Cl)cc3s2)n1` [Compound 62, 2-((2S,4R)-4-amino-1-(6-chlorobenzo[b]thiophene-2-carbonyl)pyrrolidin-2-yl)-N—((S)-6-guanidino-1-(methylamino)-1-oxohexan-2-yl)thiazole-4-carboxamide], for which the EC50 lay in the range of 100 to 1000 nM.

Regarding `CNC(=O)[C@H](CCCCNC(=N)N)NC(=O)c1csc([C@@H]2C[C@@H](N)CN2C(=O)c2cc3c(Cl)cccc3s2)n1` [Compound 63, 2-((2S,4R)-4-amino-1-(4-chlorobenzo[b]thiophene-2-carbonyl)pyrrolidin-2-yl)-N—((S)-6-guanidino-1-(methylamino)-1-oxohexan-2-yl)thiazole-4-carboxamide], the EC50 was in the range of 1000 to 5000 nM.
